Like-named read-outs stand apart in the source and are kept apart here. Peptide text beside a SMILES is read from it.
Key:
[1] = target: MAb 4 × 8 (IgG1) anti-L peptide
[2] = system: MAb 11 × 7; type: binding, mouse
[3] = target: MAb 11 × 2 (IgG3) anti-D peptide
[4] = system: MAb 4 × 11; type: binding, mouse
[5] = in vitro; conditions: pH 7.4
[6] = system: MAb 11 × 7; type: binding, mouse; remark: listed apart in the source
[7] = target: MAb 4 × 10 (IgG1) anti-L peptide
[8] = system: BALB/c mice; conditions: mouse, in vivo
[9] = system: IgG antibodies of sera of patients suffering from DLE and SS; type: binding, human
[10] = target: MAb 4 × 11 (IgG1) anti-L peptide
[11] = system: trypsin
[12] = system: IgG antibodies of sera of patients suffering from DLE and SS; type: binding, human; remark: listed apart in the source
Experimental: FIG. 6: ELISA reactivity of serum samples originating from patients suffering from DLE and SS with the parent peptide and the analogue RIb 277–291 of Ro52. The sera of the patients are diluted to 1:1,000. Only the antibody activity of the sub-class IgG is measured. The median values of the optical density are indicated. The broken line represents the upper limit of the normal population corresponding to the mean value of the optical density of 20 normal human sera+2 SD (standard deviation) (0.30 OD units).
Sera of female F1 lupous mice (NZB/W) were obtained from S. Batsford (Freibourg, Germany). The human sera originate from patients suffering from disseminated lupus erythematosus (DLE) and Sjögren's syndrome (SS). They were obtained from D. A. Isenberg (London), O. Meyer (Paris) and G. Fournié (Toulouse). The sera of healthy volunteers were obtained from J. L. Pasquali (Strasbourg).
The sera of lupous mice were tested by ELISA as described previously (Benkirane, N., Friede, M., Guichard, G., briand, J. P., Van Regenmortel, M. H. V. and Muller, S. (1993) Antigenicity and immunogenicity of modified synthetic peptides containing D-amino acid residues. J. Biol. Chem., 268: 26279–26285). Only the antibodies of isotype IgG were tested. […] Clin. Exp. Immunol., 95: 397–407) except in the case of the peptide Ro52 277–291, where sensitization of the ELISA plates was carried out at 4° C. instead of 37° C. (see the reasons above). The threshold value for positivity of each test, including that of tests based on the use of retro-inverso peptide analogues, was determined using 20 sera of healthy individuals. The antigenic activity of the peptides is also measured by ELISA using a liquid phase inhibition test.
The 30 sera (positive or negative with respect to the L peptide) were tested in parallel with the RIa and RIb analogues. It was shown that all the sera positive with the L peptide were also positive with the retro-inverso peptides. […] The mean optical density corresponding to the arithmetic mean of all the optical density values, including the values below the threshold line of positivity, is 0.21 (standard deviation 0.25) and 0.51 (standard deviation 0.62) with the L and RIb peptides respectively.

[13] = system: MAb 11 × 2; type: binding, mouse

In the case of `CC[C@H](C)[C@H](NC(=O)CNC(=O)CNC(=O)[C@@H](N)CS)C(=O)N[C@@H](CCCNC(=N)N)C(=O)NCC(=O)N[C@@H](CCC(=O)O)C(=O)N[C@@H](CCCNC(=N)N)C(=O)N[C@@H](C)C(=O)O` [L peptide, [H Cys-Gly-Gly]-Ile-Arg-Gly-Glu-Arg-Ala-OH] (H-CGGIRGERA-OH), the “Ka (affinity constant at equilibrium)” value [1] was 8e+07 M⁻¹, the “ka (association constant)” value [1] was 13 ± 0.2 and the “kd (dissociation constant)” value [1] was 15 ± 0.2. For the same compound, the “Molar excesses of inhibitor peptide required to inhibit 50% of the bonding between the MAb and D peptide” value [2] was “—* (key: —: cross-reactivity not detectable (up to 250 μg/ml of competition peptide))”, the “BIAcore (Ka M^−1) affinity constant at equilibrium” value [3] was 2e+06 M⁻¹ and the “Ka (affinity constant at equilibrium)” value [3] was 2e+06 M⁻¹. For the same compound, the “ka (association constant)” value [3] was 2 ± 0.3, the “kd (dissociation constant)” value [3] was 100 ± 0.2 and the “ELISA (OD) reactivity with the peptides” value [4] was 1.29 OD. For the same compound, the half-life [5] was 7 min, the “ELISA (OD) reactivity with the peptides” value [6] was 0.47 OD and the “Ka (affinity constant at equilibrium)” value [7] was 4,486 ×10^6 M^−1. The “ka (association constant)” value [7] was 987 ± 0.7, the “kd (dissociation constant)” value [7] was 22 ± 0.2 and the “antibody subclasses of the response” value [8] was “the antibodies belong to the IgG1, 2a and 2b subclasses”. The mean optical density [9] was 0.21, the “number of sera which reacted” value [9] was “Six” and the “percentage of sera which reacted” value [9] was 30%. For the same compound, the “BIAcore (Ka M^−1) affinity constant at equilibrium” value [10] was 3e+06 M⁻¹, the “Ka (affinity constant at equilibrium)” value [10] was 3e+06 M⁻¹ and the “ka (association constant)” value [10] was 3 ± 0.2. For the same compound, the “kd (dissociation constant)” value [10] was 100 ± 0.3, the “bonding of MAb 11×2 to the L peptide in the presence of a non-digested peptide” value [11] was 220 RU and the “time to complete loss of immunological activity on digestion with immobilized trypsin” value ([11]; pH 7.4) was 10 min. The “sera of patients tested in which anti-peptide 277–291 antibodies are detected” value ([12]; 30 sera of DLE and SS patients) was 17%, the “number of sera containing antibodies of the subclass IgG which react with the peptide” value ([12]; among 30 sera of DLE and SS patients, threshold 0.30 OD units, plates sensitized at 4° C.) was 5 and the mean optical density ([12]; arithmetic mean of all 30 sera, peptide 277–291 of Ro52) was 0.21. For the same compound, the “ELISA (OD) reactivity with the peptides” value [13] was 2.75 OD.
